Reference: US8981106B2, “Pyrimidinecarboxamides as CXCR2 modulators” (Syntrix Biosystems, Inc., priority 2009, dated 2015)

These molecules were tested against CXCR2 (Homo sapiens (Human), UniProt P25025) (assay: Inhibition of GROα-mediated intracellular calcium release in human neutrophils (FLIPR-3 Ca2+ mobilization)). Details: human neutrophils, 25 nM GROα; read-out: IC50.
Assay type: cell-based
Experimental: In Tables 1-5, the IC50 or EC50 values were determined using the following assay. This assay measures intracellular calcium release via fluorescence as an indication of CXCR2 receptor activation by the physiologic agonist GROα. The assay is a Ca^2+ mobilization assay that measures changes in intracellular Ca^2+ with a FlexStation II scanning fluorometer using a FLIPR-3 Calcium Assay Kit (Molecular Devices, Sunnyvale, Calif.). The procedure is as follows:
1. Human neutrophils were suspended in HBSS^− (without Ca^2+ and Mg^2+) containing 10 mM HEPES and FLIPR Calcium 3 dye (3.1×10^7 cells in total volume 1.7 mL).
2. […] As controls, 2 μL of DMSO (1% final concentration) were added to other 2 tubes.
3. Cells were incubated for 30 min at 37° C.
4. After dye loading, tubes were centrifuged at 6,000 rpm for 1 min, supernatant was removed and cell pellet was re-suspended in 200 μL of HBSS^+ (with Ca^2+ and Mg^2+) containing 10 mM HEPES.
5. The compound or DMSO (control) was added again at the same concentrations that were used during cell loading.
6. The cell suspension was aliquoted into a 96-well Reading Plate (Corning) in a volume of 90 μL (10^5 cells/well). The Compound Plate contained physiologic agonist (GROα in HBSS^−) or HBSS^− (control).
9. The maximum change in fluorescence, expressed in arbitrary units over baseline (Max-Min) was used to determine the GROα response. […] Therapeutic Activity
Briefly, human neutrophils were suspended in HBSS^− (without Ca^2+ and Mg^2+) containing 10 mM HEPES and FLIPR Calcium 3 dye (3.1×10^7 cells in total volume 1.7 mL). […] As controls, 2 μL of DMSO (1% final concentration) were added to 2 other tubes. Cells were incubated for 30 min at 37° C. After dye loading, tubes were centrifuged at 6,000 rpm for 1 min, supernatant was removed and the cell pellet was re-suspended in 200 μL of HBSS^+ (with Ca^2+ and Mg^2+) containing 10 mM HEPES. The test compound or DMSO (control) was added again at the same concentrations that were used during cell loading. The cell suspension was aliquoted into a 96-well Reading Plate (Corning) in a volume of 90 μL (10^5 cells/well). The Compound Plate contained agonist (GROα in HBSS^−) or HBSS^− (control).
The maximum change in fluorescence, expressed in arbitrary units over baseline (Max-Min), was used to determine the GROα response.

CXCR2, sequence (P25025 whole entry): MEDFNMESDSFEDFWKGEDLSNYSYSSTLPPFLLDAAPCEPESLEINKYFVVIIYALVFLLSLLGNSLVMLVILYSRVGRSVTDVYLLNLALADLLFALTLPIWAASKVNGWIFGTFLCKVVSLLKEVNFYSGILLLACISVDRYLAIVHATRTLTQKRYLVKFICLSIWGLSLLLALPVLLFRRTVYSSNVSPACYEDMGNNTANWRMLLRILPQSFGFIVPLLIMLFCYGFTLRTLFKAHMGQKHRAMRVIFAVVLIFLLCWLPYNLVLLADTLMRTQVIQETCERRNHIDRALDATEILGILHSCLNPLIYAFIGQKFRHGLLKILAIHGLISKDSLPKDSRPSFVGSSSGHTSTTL

Row | Compound | IC50
1 | O=C(Nc1ccc(F)cc1)c1ccc(SCc2cc3ccccc3n2S(=O)(=O)c2ccccc2)nc1 [Compound 79] | > 5 µM
2 | CCOP(=O)(CSc1ccc(C(=O)Nc2ccc(F)cc2)cn1)OCC [Compound 82] | > 10 µM
3 | O=C(Nc1ccc(F)cc1)c1ccc(SCS(=O)(=O)c2ccccc2)nc1 [Compound 83] | > 5 µM
4 | O=C(Nc1ccc(F)cc1)c1ccc(SC[N+](=O)[O-])nc1 [Compound 84] | > 10 µM
5 | Cc1ccc(C(=O)CSc2ccc(C(=O)Nc3ccc(F)cc3)cn2)cc1 [Compound 85] | > 10 µM
6 | O=C(CSc1ccc(C(=O)Nc2ccc(F)cc2)cn1)c1ccc(C(F)(F)F)cc1 [Compound 86] | > 10 µM
7 | Cc1ccc(C(=O)CSc2ccc(C(=O)Nc3ccc(F)cc3)cn2)c(C)c1 [Compound 87] | > 5 µM
8 | O=C(CSc1ccc(C(=O)Nc2ccc(F)cc2)cn1)c1ccc(Br)cc1 [Compound 88] | > 10 µM
9 | O=C(CSc1ccc(C(=O)Nc2ccc(F)cc2)cn1)c1cccc(Br)c1 [Compound 89] | 0.852 ± 0.292 µM
10 | O=C(CSc1ccc(C(=O)Nc2ccc(F)cc2)cn1)c1cccc(Cl)c1 [Compound 90] | 0.21 ± 0.19 µM
11 | O=C(CSc1ccc(C(=O)Nc2ccc(F)cc2)cn1)c1cccc(F)c1 [Compound 91] | > 10 µM
12 | Cc1cc(C(=O)CSc2ccc(C(=O)Nc3ccc(F)cc3)cn2)ccc1Cl [Compound 92] | > 5 µM
13 | O=C(CSc1ccc(C(=O)Nc2ccc(F)cc2)cn1)c1ccc(Cl)c([N+](=O)[O-])c1 [Compound 94] | 0.016 µM
14 | O=C(CSc1ccc(C(=O)Nc2ccc(F)cc2)cn1)c1ccc(F)c(F)c1 [Compound 95] | > 5 µM
15 | CC(C)(C)c1cc(C(=O)CSc2ccc(C(=O)Nc3ccc(F)cc3)cn2)cc(C(C)(C)C)c1O [Compound 96] | > 10 µM
16 | CCCCCc1ccc(C(=O)CSc2ccc(C(=O)Nc3ccc(F)cc3)cn2)cc1 [Compound 97] | > 10 µM
17 | O=C(CSc1ccc(C(=O)Nc2ccc(F)cc2)cn1)c1ccc(-c2cccs2)cc1 [Compound 98] | > 10 µM
18 | O=C(CSc1ccc(C(=O)Nc2ccc(F)cc2)cn1)c1ccc(N2CCOCC2)cc1 [Compound 99] | > 5 µM
19 | COc1ccc(C(=O)CSc2ccc(C(=O)Nc3ccc(F)cc3)cn2)cc1 [Compound 100] | > 10 µM
20 | N#Cc1ccc(C(=O)CSc2ccc(C(=O)Nc3ccc(F)cc3)cn2)cc1 [Compound 102] | > 10 µM
21 | N#Cc1cccc(C(=O)CSc2ccc(C(=O)Nc3ccc(F)cc3)cn2)c1 [Compound 103] | > 5 µM
22 | O=C(CSc1ccc(C(=O)Nc2ccc(F)cc2)cn1)c1ccc(-c2nn[nH]n2)cc1 [Compound 104] | 1.15 ± 0.47 µM

Row | Compound | IC50
23 | CS(=O)(=O)c1ccc(C(=O)CSc2ccc(C(=O)Nc3ccc(F)cc3)cn2)cc1 [Compound 105] | > 10 µM
24 | O=C(CSc1ccc(C(=O)Nc2ccc(F)cc2)cn1)c1ccc(OC(F)(F)F)cc1 [Compound 106] | > 10 µM
25 | O=C(CSc1ccc(C(=O)Nc2ccc(F)cc2)cn1)c1ccc(OC(F)F)cc1 [Compound 107] | > 10 µM
26 | O=C(Nc1ccc(F)cc1)c1ccc(SCC(=O)c2ccccc2C(F)(F)F)nc1 [Compound 108] | > 10 µM
27 | O=C(CSc1ccc(C(=O)Nc2ccc(F)cc2)cn1)c1cccc(C(F)(F)F)c1 [Compound 109] | > 10 µM
28 | O=C(CSc1ccc(C(=O)Nc2ccc(F)cc2)cn1)c1cc(C(F)(F)F)cc(C(F)(F)F)c1 [Compound 110] | > 10 µM
29 | CC1(C)CCC(C)(C)c2cc(C(=O)CSc3ccc(C(=O)Nc4ccc(F)cc4)cn3)ccc21 [Compound 111] | > 5 µM
30 | CCc1cc2c(cc1C(=O)CSc1ccc(C(=O)Nc3ccc(F)cc3)cn1)C(C)(C)CCC2(C)C [Compound 112] | 3.69 ± 0.72 µM
31 | O=C(Nc1ccc(F)cc1)c1ccc(SCC(=O)c2ccccn2)nc1 [Compound 113] | > 10 µM
32 | O=C(CSc1ccc(C(=O)Nc2ccc(F)cc2)cn1)c1cccnc1 [Compound 114] | > 5 µM
33 | O=C(CSc1ccc(C(=O)Nc2ccc(F)cc2)cn1)c1ccncc1 [Compound 115] | > 10 µM
34 | O=C(CSc1ccc(C(=O)Nc2ccc(F)cc2)cn1)c1ccc2occc2c1 [Compound 117] | > 5 µM
35 | O=C(Nc1ccc(F)cc1)c1ccc(SCC(=O)c2coc3ccccc23)nc1 [Compound 118] | > 10 µM
36 | O=C(Nc1ccc(F)cc1)c1ccc(SCC(=O)c2cc3ccc(Br)cc3o2)nc1 [Compound 119] | 0.981 ± 0.29 µM
37 | O=C(Nc1ccc(F)cc1)c1ccc(SCC(=O)c2cc3ccccc3o2)nc1 [Compound 120] | > 10 µM
38 | O=C(CSc1ccc(C(=O)Nc2ccc(F)cc2)cn1)c1ccsc1 [Compound 121] | > 10 µM
39 | O=C(Nc1ccc(F)cc1)c1ccc(SCC(=O)c2cccs2)nc1 [Compound 122] | > 5 µM
40 | O=C(Nc1ccc(F)cc1)c1ccc(SCC(=O)c2ccc(-c3ccccc3)s2)nc1 [Compound 123] | > 10 µM
41 | O=C(Nc1ccc(F)cc1)c1ccc(SCC(=O)c2ccc(-c3ccccn3)s2)nc1 [Compound 124] | > 10 µM
42 | O=C(CSc1ccc(C(=O)Nc2ccc(F)cc2)cn1)c1ccc2sccc2c1 [Compound 125] | > 10 µM
43 | O=C(Nc1ccc(F)cc1)c1ccc(SCC(=O)c2csc3ccccc23)nc1 [Compound 126] | > 5 µM
44 | O=C(Nc1ccc(F)cc1)c1ccc(SCC(=O)c2csc3ccc(Br)cc23)nc1 [Compound 127] | 1.25 ± 0.32 µM

Row | Compound | IC50
45 | O=C(Nc1ccc(F)cc1)c1ccc(SCC(=O)c2cc3ccccc3s2)nc1 [Compound 128] | 1.81 ± 0.52 µM
46 | Cc1c(C(=O)CSc2ccc(C(=O)Nc3ccc(F)cc3)cn2)sc2ccccc12 [Compound 129] | > 10 µM
47 | Cc1ccc2sc(C(=O)CSc3ccc(C(=O)Nc4ccc(F)cc4)cn3)c(C)c2c1 [Compound 130] | > 10 µM
48 | Cc1onc(-c2ccccc2)c1C(=O)CSc1ccc(C(=O)Nc2ccc(F)cc2)cn1 [Compound 131] | > 5 µM
49 | Cc1c(C(=O)CSc2ccc(C(=O)Nc3ccc(F)cc3)cn2)sc2ccc(Cl)cc12 [Compound 132] | 0.78 ± 0.51 µM
50 | O=C(Nc1ccc(F)cc1)c1ccc(SCC(=O)c2cc(-c3ccccc3)no2)nc1 [Compound 133] | > 5 µM
51 | O=C(Nc1ccc(F)cc1)c1ccc(SCC(=O)c2cc(-c3ccc(Cl)cc3)no2)nc1 [Compound 134] | > 10 µM
52 | O=C(Nc1ccc(F)cc1)c1ccc(SCC(=O)c2cc(-c3ccc(Cl)c(Cl)c3)no2)nc1 [Compound 135] | > 10 µM
53 | O=C(Nc1ccc(F)cc1)c1ccc(SCC(=O)c2cc(-c3ccc(Cl)cc3Cl)no2)nc1 [Compound 136] | > 5 µM
54 | O=C(Nc1ccc(F)cc1)c1ccc(SCC(=O)c2cc(C(=O)O)no2)nc1 [Compound 138] | 0.081 ± 0.01 µM
55 | O=C(CSc1ccc(C(=O)Nc2ccc(F)cc2)cn1)c1ccc2c(c1)OCO2 [Compound 139] | > 5 µM
56 | O=C(CSc1ccc(C(=O)Nc2ccc(F)cc2)cn1)c1ccc2c(c1)OCCO2 [Compound 140] | 0.194 ± 0.052 µM
57 | O=C(Nc1ccc(F)cc1)c1ccc(SCC(=O)c2cccc3c2OCCO3)nc1 [Compound 141] | > 5 µM
58 | O=C(CSc1ccc(C(=O)Nc2ccc(F)cc2)cn1)c1ccc2c(c1)OCCCO2 [Compound 142] | > 5 µM
59 | O=C(Nc1ccc(F)cc1)c1ccc(SCC(=O)c2cccc3c2OCCCO3)nc1 [Compound 143] | > 10 µM
60 | O=C(Nc1ccc(F)cc1)c1ccc(SCC(=O)c2ccsn2)nc1 [Compound 144] | 2.24 ± 0.71 µM
61 | O=C(Nc1ccc(F)cc1)c1ccc(SCC(=O)c2nc3ccccc3s2)nc1 [Compound 145] | > 5 µM
62 | Cc1nc(-c2ccccc2)sc1C(=O)CSc1ccc(C(=O)Nc2ccc(F)cc2)cn1 [Compound 146] | > 10 µM
63 | Cc1nc(-c2ccc(Cl)cc2)sc1C(=O)CSc1ccc(C(=O)Nc2ccc(F)cc2)cn1 [Compound 147] | > 5 µM
64 | Cc1nc(-c2ccc(C(F)(F)F)cc2)sc1C(=O)CSc1ccc(C(=O)Nc2ccc(F)cc2)cn1 [Compound 148] | > 5 µM
65 | Cc1nc(-c2cnccn2)sc1C(=O)CSc1ccc(C(=O)Nc2ccc(F)cc2)cn1 [Compound 149] | > 10 µM
66 | Cc1c(C(=O)CSc2ccc(C(=O)Nc3ccc(F)cc3)cn2)cnn1-c1ccccc1 [Compound 150] | > 10 µM

Same assay, conditions: read-out: IC50

Row | Compound | IC50
67 | O=C(CSc1ccc(C(=O)Nc2ccc(F)cc2)cn1)c1ccc(Cl)c(Cl)c1 [Compound 93] | 1.85 ± 0.55 µM
68 | O=C(CSc1ccc(C(=O)Nc2ccc(F)cc2)cn1)c1ccc([N+](=O)[O-])cc1 [Compound 101] | > 10 µM
69 | O=C(Nc1ccc(F)cc1)c1ccc(SCC(=O)c2ccco2)nc1 [Compound 116] | > 10 µM
